Test results as given in patent US20110214196A1, “DEVELOPMENT OF HERBICIDE-RESISTANT GRASS SPECIES” (University of Georgia Research Foundation, priority 2008, published 2011).

What was measured:
[1] = test system: Large crabgrass (Digitaria sanguinalis) F2; assay: Large crabgrass dose response study, F2 from self-pollinated surviving plants; assay type: in vivo
Protocol: (§1) Plants were grown from seed collected from a turfgrass sod farm near where sethoxydim had been continuously used for twelve years. Seeds were planted in 250 mL styrofoam cups with a potting mixture of pure sand in a glasshouse with supplemental lighting (300 uE/m2/s) and 30/25 temperature. Plants were watered once daily and fertilized once a week. Large crabgrass plants were treated with herbicides when 3-5 cm tall in a dose response study. Four herbicides (sethoxydim, fluazifop, clethodim, and pinoxaden) were applied at […]. Plant injury was observed 7 and 14 DAT. The experimental design consisted of a randomized complete block design with three replications. The experiment was replicated in time.
In response to all four herbicides, the plants initially illutrated typical ACCase symptomology, but recovered in 7-14 days after treatment (DAT). […] Seeds from self-pollinated surviving large crabgrass plants were collected and analyzed using the same dose response design as state before. […] The ED50 was approximately 10 times greater for the resistant (R) population than that for the wild type (S) population.

[2] = test system: Large crabgrass (Digitaria sanguinalis); assay: Large crabgrass dose response study, plants from sod farm seed; assay type: in vivo; conditions: for resistance or susceptibility of this population of large crabgrass: conclusion from ED50 values; for effective dose required to cause 50% injury (ED50): large crabgrass grown from sod farm seed, treated when 3-5 cm tall
Protocol: as §1

SMILES | effective dose required to cause 50% injury (ED50) [1] [g ai/ha] | resistance or susceptibility of this population of large crabgrass [2] | effective dose required to cause 50% injury (ED50) [2] [g ai/ha]
CCc1cc(C)cc(CC)c1-c1c(OC(=O)C(C)(C)C)n2n(c1=O)CCOCC2 [pinoxaden] | 131±44 | resistant | 168±29
CCSC(C)CC1CC(=O)C(/C(CC)=N/OC/C=C/Cl)=C(O)C1 (racemic) [clethodim, (E,E)-(±)-2-[1-[[(3-chloro-2-propenyl)oxy]imino]propyl]-5-[2-(ethylthio)propyl]-3-hydroxy-2-cyclohexen-1-one] | 28±22 | susceptible | 51±4
